Values quoted from earlier work, collected in patent US4039549A, “Olefinic derivatives of amino acids” (Merrell Toraude et Compagnie, priority 1976, dated 1977).

Tests used:
[1] = test system: γ-aminobutyric acid transaminase; conditions: literature
[2] = test system: brain levels of γ-aminobutyric acid; conditions: reversible effect; literature

SMILES | inhibition of γ-aminobutyric acid transaminase (mode) [1] | duration of effect (elevation of brain γ-aminobutyric acid levels) [2]
NCC#CC(=O)O [4-aminotetrolic acid] | competitive reversible inhibitor | 
CCCC(CCC)C(=O)O [n-dipropylacetate] | competitively inhibiting | about 2 hours
